Experimental data published in publication PMC12521730, “Quantitative dual-isotope preclinical SPECT/CT imaging and biodistribution of the mercury-197m/g theranostic pair with [^197m/gHg]HgCl2 and a [^197m/gHg]Hg-tetrathiol complex as a platform for radiopharmaceutical development” (EJNMMI Radiopharmacy and Chemistry, 2025).

What was measured:
[1] = Stable metal competition assay, AuCl3; type: physicochemical; details: tenfold excess to chelator, 113 h, ambient temperature
Procedure: (§1) To the [^197m/gHg][Hg(Tetrathiol)]^2− (prepared as described above) or radiolabeling controls (DMSO instead of the ligand) 10 µL of a 10 mM metal cocktail (solution of biologically relevant metals, ZnCl2, FeCl3, CuCl2, MgCl2 and CoCl2), 10 mM AuCl3 or 10 mM of HgCl2, in water was added. The final solution contained tenfold excess of stable metal to the chelators and 10^6-fold excess of the stable metal to ^197m/gHg in solution. The mixtures were incubated at RT over 113 h. The proportion of intact radiolabeled complex was monitored over the course of 113 h using iTLC-SG and DMSA solution (50 mM, pH 5) as the mobile phase. Under these conditions, uncomplexed ^197m/gHg^2+ resulting from stable metal transchelation traveled to the solvent front (Rf = 1) while intact [^197m/gHg][Hg(Tetrathiol)]^2− remained at the baseline (Rf = 0).

[2] = L-Glutathione (GSH) competition assay; type: physicochemical; details: 37 °C, 72 h, 2.12 mM GSH
Procedure: GSH competition assay procedures closely followed those previously developed by our group (Randhawa et al. [2023]). To the [^197m/gHg][Hg(Tetrathiol)]^2− (prepared as described above) or radiolabeling controls (DMSO instead of the ligand) was added to a 50 mM L-glutathione (GSH) solution (1:22 v/v GSH:reaction solution dilution), and the mixtures were incubated at 37 °C over 72 h. The final GSH concentration was chosen to mimic in vivo conditions within cells (2.12 mM) (Dickinson and Forman [2002]). The proportion of intact radiolabeled complex was monitored over the course of 72 h using iTLC-SG and L-glutathione (50 mM) as the mobile phase. Under these conditions, uncomplexed ^197m/gHg^2+ resulting from GSH transchelation traveled to the solvent front (Rf = 1) while intact [^197m/gHg][Hg(Tetrathiol)]^2− remained at the baseline (Rf = 0).

[3] = LogD7.4 shake-flask measurement (n-octanol/PBS); type: physicochemical; details: n-octanol/PBS pH 7.4, shake-flask
Procedure: Aliquots of [^197m/gHg][Hg(Tetrathiol)]^2− (prepared as described above) (10 μL) were added to a biphasic mixture of n-octanol (700 μL) and phosphate buffered saline (PBS, 700 μL, pH 7.4). The mixture was vortexed for 2 min at ambient temperature and then separated via centrifugation (10 min, 3000 rpm). Aliquots of n-octanol (100 μL) and PBS (100 μL) were collected, and the activity in each portion was determined via gamma spectroscopy. LogD7.4 is defined as log10[(activity in n-octanol phase)/(activity in buffer phase)].

[4] = Human serum stability assay (SDS-PAGE); type: in vitro ADME; details: 37 °C, 72 h
Procedure: To the [^197m/gHg][Hg(Tetrathiol)]^2− (prepared as described above) or radiolabeling controls (DMSO instead of the ligand) was diluted in human serum (1:1 v/v dilution), and the solutions were incubated at 37 °C over 72 h. The metal-complex stabilities were monitored over 72 h using SDS-PAGE following our previously reported protocols (Randhawa et al. [2023]; Tosato et al. [2024]). At each time point, an aliquot (10 μL) of the reaction mixture was mixed with Laemmli sample buffer (10 μL) and was directly loaded onto the SDS-PAGE gel. The SDS-PAGE was run at ambient temperature and 150 V until the dye front reached the resolving gel (1 h). Following electrophoresis, the gel was scanned with the radio-TLC scanner to determine the percentage of intact complex. The same protocol was used with free [^197m/gHg]Hg^2+ and the ^197m/gHg^2+-complexes diluted in phosphate-buffered saline (PBS) (5 µL; 1:1 v/v dilution) to assess their electrophoretic mobility.

[5] = Stable metal competition assay, biologically relevant metal cocktail; type: physicochemical; details: tenfold excess to chelator, 113 h, ambient temperature
Procedure: as §1

[6] = Stable metal competition assay, HgCl2; type: physicochemical; details: tenfold excess HgCl2
Procedure: as §1

## O=C(CC[S-])OCC(COC(=O)CC[S-])(COC(=O)CC[S-])COC(=O)CC[S-].[Hg+2] [[^197m/gHg]Hg-Tetrathiol]
[1]
  demetallation against AuCl3: no signs of demetallation
[2]
  stability when challenged against GSH: no evidence of decomposition or transchelation
[3]
  logD7.4: 0.35 ± 0.1
[4]
  intact complex in human serum: 86 ± 1%
[5]
  demetallation against mixture of biologically relevant metals: no signs of demetallation
[6]; 113 h
  intact complex in competition with HgCl2: 18 ± 10%
[6]; within 2 h
  intact complex in competition with HgCl2: 71 ± 10%
